Data taken from patent US11464788B2, “Oligomer-corticosteroid conjugates” (Nektar Therapeutics, priority 2007, dated 2022).
pIC50: −log10 of the molar value. Like-named read-outs stand apart in the source and are kept apart here.

Assays:
[1] = molecular target: T1, glucocorticoid receptors (Rattus norvegicus, UniProt P06536); experiment: Glucocorticoid binding assay (competitive binding with [6,7-3H]triamcinolone acetonide); details: displacement of [6,7-3H]triamcinolone acetonide; glucocorticoid receptors from rat brains; 50 mM KH2PO4 pH 7.4, 0° C., 16 hours
T1 sequence (P06536 1-795): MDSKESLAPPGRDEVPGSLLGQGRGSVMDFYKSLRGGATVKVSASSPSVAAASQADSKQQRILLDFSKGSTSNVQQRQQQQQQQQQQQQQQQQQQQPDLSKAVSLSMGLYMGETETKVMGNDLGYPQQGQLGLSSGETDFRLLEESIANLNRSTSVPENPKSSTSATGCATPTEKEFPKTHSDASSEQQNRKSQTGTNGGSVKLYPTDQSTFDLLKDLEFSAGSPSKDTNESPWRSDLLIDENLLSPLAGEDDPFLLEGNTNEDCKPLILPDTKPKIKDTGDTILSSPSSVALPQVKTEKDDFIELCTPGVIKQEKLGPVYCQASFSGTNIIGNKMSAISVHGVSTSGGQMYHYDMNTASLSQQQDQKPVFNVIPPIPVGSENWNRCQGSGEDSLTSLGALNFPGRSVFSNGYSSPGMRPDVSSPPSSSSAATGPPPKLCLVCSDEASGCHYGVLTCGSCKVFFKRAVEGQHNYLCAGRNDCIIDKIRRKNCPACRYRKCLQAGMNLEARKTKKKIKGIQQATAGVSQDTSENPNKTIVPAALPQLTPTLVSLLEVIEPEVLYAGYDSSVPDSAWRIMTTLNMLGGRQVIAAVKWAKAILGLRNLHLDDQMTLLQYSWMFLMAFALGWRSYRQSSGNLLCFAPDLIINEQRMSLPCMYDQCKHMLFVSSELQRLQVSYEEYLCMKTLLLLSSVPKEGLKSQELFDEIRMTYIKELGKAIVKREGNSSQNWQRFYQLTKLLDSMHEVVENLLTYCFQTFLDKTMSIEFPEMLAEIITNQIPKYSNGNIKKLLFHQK
Protocol: The assay was used to determine whether the tested compounds bound to the glucocorticoid binding site and is based on procedures set forth in the literature. […] Int. […] Briefly, using competitive binding of with the radioligand “[6,7-^3H]triamcinolone acetonide” (30-50 Cl/mmol), reactions were carried out in 50 mM KH2PO4 (pH 7.4) containing 10 mM sodium molybdate and 10 mM α-monothioglycerol at 0° C. for 16 hours. The glucocorticoid receptors were obtained from rat brains. The reactions were terminated by rapid vacuum filtration onto glass fiber filters. Radioactively trapped onto the filters is determined and compared to control values. […] A higher IC50 value reflects a weaker binding affinity.

COCCOCCOCCOCCOCCOCCOCCOC(=O)NN=C1C=C2CCC3C(C(O)CC4(C)C3CCC4(O)C(=O)CO)C2(C)CC1 (centres unmarked) [mPEG7-Hydrocortisone]
pIC50 [1]: 8.41

C[C@]12CCC(=O)C=C1CC[C@@H]1[C@@H]2C(=O)C[C@@]2(C)[C@H]1CC[C@]2(O)C(=O)CO [Cortisone]
stability of the drug (pH 5.5): stable | stability of the drug (pH 7.4): many decomposed impurities

CC1(C)O[C@@H]2C[C@H]3[C@@H]4CCC5=CC(=O)C=C[C@]5(C)[C@@]4(F)[C@@H](O)C[C@]3(C)[C@]2(C(=O)CO)O1 [Triamcinolone Acetonide]
pIC50 [1]: 8.92

C[C@]12CCC(=O)C=C1CC[C@@H]1[C@@H]2[C@@H](O)C[C@@]2(C)[C@H]1CC[C@]2(O)C(=O)CO [Hydrocortisone]
stability of the drug (pH 7.4): much more stable than cortisone

COCCOCCOCCOCCOCCOCCOCCOC(=O)NN=C1C=C2CCC3C(C(=O)CC4(C)C3CCC4(O)C(=O)CO)C2(C)CC1 (centres unmarked) [mPEG7-Cortisone]
pIC50 [1]: 5.46 | cortisone release from the conjugate (hydrolysis) (pH 5.5): able to release cortisone clearly | cortisone release from the conjugate (hydrolysis) (pH 7.4): much slower than that at pH 5.5
